The term IC50 denotes the point on the concentration scale where inhibition reaches its midpoint. The low end stands for inhibition by little substance, the high end for a need for much substance.

This test concerns the target T1, histone deacetylase activity (HeLa nuclear extract).
T1 construct: Histone deacetylase activity from crude nuclear extract derived from HeLa cells was used for screening
As to the kind of experiment: HDAC fluorescent activity assay (Biomol Fluor de Lys), HeLa nuclear extract. The class given is biochemical. The following applies: Fluor de Lys substrate, IC50 range. The method, then:
The ability of compounds to inhibit histone deacetylase activities was measured using the commercially available HDAC fluorescent activity assay from Biomol. In brief, the Fluor de Lys™ substrate, a lysine with an epsilon-amino acetylation, is incubated with the source of histone deacetylase activity (HeLa nuclear extract) in the presence or absence of inhibitor. Deacetylation of the substrate sensitises the substrate to Fluor de Lys™ developer, which generates a fluorophore. Thus, incubation of the substrate with a source of HDAC activity results in an increase in signal that is diminished in the presence of an HDAC inhibitor.
Data are expressed as a percentage of the control, measured in the absence of inhibitor, with background signal being subtracted from all samples, as follows:— % activity=((S^i−B)/(S^o−B))×100 where S^i is the signal in the presence of substrate, enzyme and inhibitor, S^o is the signal in the presence of substrate, enzyme and the vehicle in which the inhibitor is dissolved, and B is the background signal measured in the absence of enzyme.
IC50 values were determined by non-linear regression analysis, after fitting the results of eight data points to the equation for sigmoidal dose response with variable slope (% activity against log concentration of compound), using Graphpad Prism software.
Histone deacetylase activity from crude nuclear extract derived from HeLa cells was used for screening. The preparation, purchased from 4C (Seneffe, Belgium), was prepared from HeLa cells harvested whilst in exponential growth phase. The nuclear extract is prepared according to Dignam JD1983 Nucl. Acid. Res. 11, 1475-1489, snap frozen in liquid nitrogen and stored at −80° C. The final buffer composition was 20 mM Hepes, 100 mM KCl, 0.2 mM EDTA, 0.5 mM DTT, 0.2 mM PMSF and 20% (v/v) glycerol.
`CC(C)C[C@H](NCc1cccc(NC(=O)CCCCCCC(=O)NO)c1)C(=O)O` [Compound 38, (S)-2-[3-(7-Hydroxycarbamoyl-heptanoylamino)-benzylamino]-4-methyl-pentanoic acid] gave a half-inhibitory concentration (IC50) of 0.101 to 1 µM.

As to `CC(C)C[C@H](NC(=O)c1cccc(NC(=O)CCCCCCC(=O)NO)c1)C(=O)O` [Compound 63, (S)-2-[3-(7-Hydroxycarbamoyl-heptanoylamino)-benzoylamino]-4-methyl-pentanoic acid], the IC50 lay in the range of 0.101 to 1 µM. For `O=C(CCCCCCC(=O)Nc1cccc(CCN[C@H](C(=O)O)c2ccccc2)c1)NO` [Compound 72, (S)-{2-[3-(7-Hydroxycarbamoyl-heptanoylamino)-phenyl]-ethylamino}-phenyl-acetic acid] the value was below 0.1 µM; for `O=C(CCCCCCC(=O)Nc1cccc(OCCN[C@@H](Cc2ccccc2)C(=O)O)c1)NO` [Compound 74, (S)-2-{2-[3-(7-Hydroxycarbamoyl-heptanoylamino)-phenoxy]-ethylamino}-3-phenyl-propionic acid], 0.101 to 1 µM; for `O=C(CCCCCCC(=O)Nc1cccc(OCCCN[C@@H](Cc2ccccc2)C(=O)O)c1)NO` [Compound 76, (S)-2-{3-[3-(7-Hydroxycarbamoyl-heptanoylamino)-phenoxy]-propylamino}-3-phenyl-propionic acid], below 0.1 µM. Next, `O=C(CCCCCCC(=O)Nc1cccc(CNC(=O)N[C@H](C(=O)O)c2ccccc2)c1)NO` [Compound 80, (S)-{3-[3-(7-Hydroxycarbamoyl-heptanoylamino)-benzyl]-ureido}-phenyl-acetic acid]: 0.101 to 1 µM; `O=C(CCCCCCC(=O)Nc1cccc(CNC(=O)N[C@@H](Cc2ccccc2)C(=O)O)c1)NO` [Compound 82, (S)-2-{3-[3-(7-Hydroxycarbamoyl-heptanoylamino)-benzyl]-ureido}-3-phenyl-propionic acid]: 0.101 to 1 µM; `O=C(CCCCCCC(=O)Nc1ccc(CN[C@@H](C(=O)O)c2ccccc2)cc1)NO` [Compound 84, (R)-[4-(7-Hydroxycarbamoyl-heptanoylamino)-benzylamino]-phenyl-acetic acid]: 0.101 to 1 µM. Next, `O=C(CCCCCCC(=O)Nc1ccc(CN[C@H](C(=O)O)C2CCCCC2)cc1)NO` [Compound 87, (S)-Cyclohexyl-[4-(7-hydroxycarbamoyl-heptanoylamino)-benzylamino]-acetic acid]: below 0.1 µM; `CC(C)(C)OC[C@H](NCc1ccc(NC(=O)CCCCCCC(=O)NO)cc1)C(=O)O` [Compound 90, (S)-3-tert-Butoxy-2-[4-(7-hydroxycarbamoyl-heptanoylamino)-benzylamino]-propionic acid]: 0.101 to 1 µM; `O=C(CCCCCCC(=O)Nc1cccc(OCCCC(=O)N[C@H](C(=O)O)c2ccccc2)c1)NO` [Compound 93, (S)-{4-[3-(7-Hydroxycarbamoyl-heptanoylamino)-phenoxy]-butyrylamino}-phenyl-acetic acid]: below 0.1 µM. In the case of `O=C(CCCCCCC(=O)Nc1cccc(COC(=O)N[C@@H](Cc2ccccc2)C(=O)O)c1)NO` [Compound 95, (S)-2-[3-(7-Hydroxycarbamoyl-heptanoylamino)-benzyloxycarbonylamino]3-phenyl-propionic acid], the IC50 was 0.101 to 1 µM. For `CC(C)C[C@H](NC(=O)[C@@H]1Cc2ccc(NC(=O)CCCCCCC(=O)NO)cc2CN1)C(=O)O` [Compound 97, (S)-2-{[(S)-7-(7-Hydroxycarbamoyl-heptanoylamino)-1,2,3,4-tetrahydro-isoquinoline-3-carbonyl]-amino}-4-methyl-pentanoic acid] the value was 0.101 to 1 µM. Compound `CC(C)C[C@H](NC(=O)c1ccc(NC(=O)CCCCCCC(=O)NO)cc1)C(=O)O` [Compound 99, (S)-2-[4-(7-Hydroxycarbamoyl-heptanoylamino)-benzoylamino]-4-methyl-pentanoic acid] yielded an IC50 above 1 µM. Next, `O=C(CCCCCCNC(=O)c1cc2cc(CCC(=O)N[C@@H](Cc3ccccc3)C(=O)O)ccc2[nH]1)NO` [Compound 101, (S)-2-{3-[2-(6-Hydroxycarbamoyl-hexylcarbamoyl)-1H-indol-5-yl]-propionylamino}-3-phenyl-propionic acid]: below 0.1 µM; `O=C(Cc1ccc(OCCCC(=O)N[C@@H](Cc2ccccc2)C(=O)O)cc1)Nc1ccc2sc(C(=O)NO)cc2c1` [Compound 103, (S)-2-(4-{4-[(2-Hydroxycarbamoyl-benzo[b]thiophen-5-ylcarbamoyl)-methyl]-phenoxy}-butyrylamino)-3-phenyl-propionic acid]: below 0.1 µM; `O=C(NO)c1cc2ccc(CNCc3ccc(CN[C@@H](Cc4ccccc4)C(=O)O)cc3)cc2s1` [Compound 105, (S)-2-(4-{[(2-Hydroxycarbamoyl-benzo[b]thiophen-6-ylmethyl)-amino]-methyl}-benzylamino)-3-phenyl-propionic]: below 0.1 µM.

The compound `O=C(NO)c1cc2ccc(CNCc3ccc(CN4CCC[C@H]4C(=O)O)cc3)cc2s1` [Compound 112, (S)-1-(4-{[(2-Hydroxycarbamoyl-benzo[b]thiophen-6-ylmethyl)-amino]-methyl}-benzyl)-pyrrolidine-2-carboxylic acid] came in with an IC50 of 0.101 to 1 µM.

Compound `CC(C)(C)SC[C@H](NCc1ccc(CNCc2ccc3cc(C(=O)NO)sc3c2)cc1)C(=O)O` [Compound 114, (R)-3-tert-Butylsulfanyl-2-(4-{[(2-hydroxycarbamoyl-benzo[b]thiophen-6-ylmethyl)-amino]-methyl}-benzylamino)-propionic acid] came in with an IC50 of 0.101 to 1 µM.

With `O=C(NO)c1cc2ccc(CNCc3ccc(CN[C@H](C(=O)O)C4CCCCC4)cc3)cc2s1` [Compound 117, (S)-Cyclohexyl-(4-{[(2-hydroxycarbamoyl-benzo[b]thiophen-6-ylmethyl)-amino]-methyl}-benzylamino)-acetic acid], the IC50 is below 0.1 µM. For `C[C@H](NCc1ccc(CNCc2ccc3cc(C(=O)NO)sc3c2)cc1)C(=O)O` [Compound 119, (S)-2-(4-{[(2-Hydroxycarbamoyl-benzo[b]thiophen-6-ylmethyl)-amino]-methyl}-benzylamino)-propionic acid] the value was below 0.1 µM. Next, `O=C(O)CNCc1ccc(CNCc2ccc3cc(C(=O)NO)sc3c2)cc1` [Compound 121, (4-{[(2-Hydroxycarbamoyl-benzo[b]thiophen-6-ylmethyl)-amino]-methyl}-benzylamino)-acetic acid]: below 0.1 µM; `CC(C)C[C@H](NCc1ccc(CNCc2ccc3cc(C(=O)NO)sc3c2)cc1)C(=O)O` [Compound 123, (S)-2-(4-{[(2-Hydroxycarbamoyl-benzo[b]thiophen-6-ylmethyl)-amino]-methyl}-benzylamino)-4-methyl-pentanoic acid]: below 0.1 µM. Compound `O=C(NO)c1cc2ccc(CNCc3ccc(CN[C@H](C(=O)O)c4ccccc4)cc3)cc2s1` [Compound 125, (S)-(4-{[(2-Hydroxycarbamoyl-benzo[b]thiophen-6-ylmethyl)-amino]-methyl}-benzylamino)-phenyl-acetic acid] registered an IC50 below 0.1 µM. For `O=C(NO)c1cc2ccc(CNCC3CCC(CN[C@H](C(=O)O)c4ccccc4)CC3)cc2s1` (stereo partly drawn) [Compound 127, (S)-[(4-{[(2-Hydroxycarbamoyl-benzo[b]thiophen-6-ylmethyl)-amino]-methyl}-cyclohexylmethyl)-amino]-phenyl-acetic acid] the value was 0.101 to 1 µM.

These data come from US9133104B2 (Chroma Therapeutics Ltd., priority 2005, dated 2015).
